Laboratory results from patent US5843889A, “Glycopeptide antibiotic derivatives” (Eli Lilly and Company, priority 1997, dated 1998).
Converted amounts (≈) assume the structure as drawn.

Key:
[1] = tested on: Entercoccus faecium 180-1; test: MIC, standard broth micro-dilution assay; type: cell-based
Protocol: (§1) The MIC's were determined using a standard broth micro-dilution assay.

Entercoccus faecium 180 = test: MIC, standard broth micro-dilution assay; type: cell-based
Protocol: as §1

Escherichia coli EC14 = test: MIC, standard broth micro-dilution assay; type: cell-based
Protocol: as §1

[2] = tested on: Staphylococcus aureus 446; test: MIC, standard broth micro-dilution assay; type: cell-based
Protocol: as §1

[3] = tested on: Staphylococcus aureus 447; test: MIC, standard broth micro-dilution assay; type: cell-based
Protocol: as §1

[4] = tested on: Staphylococcus aureus 489; test: MIC, standard broth micro-dilution assay; type: cell-based
Protocol: as §1

[5] = tested on: Staphylococcus aureus 491; test: MIC, standard broth micro-dilution assay; type: cell-based
Protocol: as §1

[6] = tested on: Staphylococcus aureus SA1199A; test: MIC, standard broth micro-dilution assay; type: cell-based
Protocol: as §1

[7] = tested on: Staphylococcus aureus SA1199; test: MIC, standard broth micro-dilution assay; type: cell-based
Protocol: as §1

[8] = tested on: Staphylococcus aureus X400; test: MIC, standard broth micro-dilution assay; type: cell-based
Protocol: as §1

[9] = tested on: Staphylococcus aureus X778; test: MIC, standard broth micro-dilution assay; type: cell-based
Protocol: as §1

[10] = tested on: Staphylococcus epidermidis 270; test: MIC, standard broth micro-dilution assay; type: cell-based
Protocol: as §1

[11] = tested on: Staphylococcus haemolyticus 105; test: MIC, standard broth micro-dilution assay; type: cell-based
Protocol: as §1

[12] = tested on: Staphylococcus haemolyticus 415; test: MIC, standard broth micro-dilution assay; type: cell-based
Protocol: as §1

[13] = tested on: Streptococcus pneumoniae P1; test: MIC, standard broth micro-dilution assay; type: cell-based
Protocol: as §1

[14] = tested on: Streptococcus pyogenes C203; test: MIC, standard broth micro-dilution assay; type: cell-based
Protocol: as §1

[15] = tested on: Staphylococcus aureus S13E; type: cell-based
Protocol: as §1

[16] = tested on: Staphylococcus aureus SA1199B; type: cell-based
Protocol: as §1

[17] = tested on: Entercoccus faecalis 2041; test: MIC, standard broth micro-dilution assay; type: cell-based
Protocol: (§2) The formula I compounds have in vitro and in vivo activity against Gram-positive pathogenic bacteria. The MIC's were determined using a standard broth micro-dilution assay.

Entercoccus faecalis 276 = test: MIC, standard broth micro-dilution assay; type: cell-based
Protocol: as §2

[18] = tested on: Entercoccus gallinarum 245; test: MIC, standard broth micro-dilution assay; type: cell-based
Protocol: as §2

[19] = tested on: Haemophilus influenzae RD; test: MIC, standard broth micro-dilution assay; type: cell-based
Protocol: as §1

Stapylococcus aureus = test: ED50 in experimentally infected mice; type: in vivo; settings: mice infected with Stapylococcus aureus, two doses
Streptococcus pyogenes = test: ED50 in experimentally infected mice; type: in vivo; settings: mice infected with Streptococcus pyogenes, two doses
Streptococcus pneumoniae = test: ED50 in experimentally infected mice; type: in vivo; settings: mice infected with Streptococcus pneumoniae, two doses
[20] = tested on: vancomycin-resistant enterococci (Enterococcus faecium and Enterococcus faecalis); test: mean geometric MIC, broth micro-dilution; type: cell-based; settings: 24-hour incubation
[21] = tested on: vancomycin-susceptibie enterococci (Enterococcus faecium and Enterococcus faecalis); test: mean geometric MIC, broth micro-dilution; type: cell-based; settings: 24-hour incubation
Pedicoccus acidilacti = test: MIC, agar dilution on brain-heart infusion agar; type: cell-based; settings: Pedioccccus acidilacti (mean of 10)
Pediococcus pentosaceus = test: MIC, agar dilution on brain-heart infusion agar; type: cell-based; settings: Pediococcus pentosaceus (mean of 2)
Leuconostoc lactis = test: MIC, agar dilution on brain-heart infusion agar; type: cell-based; settings: Leuconostoc lactis (mean of 2)
[22] = tested on: Leuconostoc mesenteroides; test: MIC, agar dilution on brain-heart infusion agar; type: cell-based; settings: Leuconostoc mesenteroides (mean of 4)
Lactobacillus confusus = test: MIC, agar dilution on brain-heart infusion agar; type: cell-based

Row | Compound | MIC [1] [µg/mL] | MIC (Entercoccus faecium 180) [µg/mL] | MIC (Escherichia coli EC14) [µg/mL] | MIC [2] [µg/mL] | MIC [3] [µg/mL] | MIC [4] [µg/mL] | MIC [5] [µg/mL] | MIC [6] [µg/mL] | MIC [7] [µg/mL] | MIC [8] [µg/mL] | MIC [9] [µg/mL] | MIC [10] [µg/mL] | MIC [11] [µg/mL] | MIC [12] [µg/mL] | MIC [13] [µg/mL] | MIC [14] [µg/mL] | MIC [15] [µg/mL] | MIC [17] [µg/mL] | MIC (Entercoccus faecalis 276) [µg/mL] | MIC [18] [µg/mL] | also measured
1 | CCCCCOc1ccc(-c2ccc(CNC3(C)CC(OC4C(Oc5c6cc7cc5Oc5ccc(cc5Cl)C(OC5CC(C)(N)C(O)C(C)O5)C5NC(=O)C(NC(=O)C7NC(=O)C(CC(N)=O)NC(=O)C(NC(=O)C(CC(C)C)NC)C(O)c7ccc(c(Cl)c7)O6)c6ccc(O)c(c6)-c6c(O)cc(O)cc6C(C(=O)O)NC5=O)OC(CO)C(O)C4O)OC(C)C3O)cc2)cc1 (centres unmarked) [Compound 40, 4-[4-pentoxyphenyl]benzyl] | 2 (≈ 1.08 µM) | 1 (≈ 0.542 µM) | > 64 | 4 (≈ 2.17 µM) | 2 (≈ 1.08 µM) | 4 (≈ 2.17 µM) | 4 (≈ 2.17 µM) | 0.5 (≈ 0.271 µM) | 4 (≈ 2.17 µM) | 4 (≈ 2.17 µM) | 4 (≈ 2.17 µM) | 1 (≈ 0.542 µM) | 2 (≈ 1.08 µM) | 2 (≈ 1.08 µM) | ≤ 0.06 | ≤ 0.06 | 4 (≈ 2.17 µM) | 1 (≈ 0.542 µM) | 2 (≈ 1.08 µM) | 11 (≈ 5.96 µM) | MIC [16]: 8 µg/mL (≈ 4.34 µM)
2 | CNC(CC(C)C)C(=O)NC1C(=O)NC(CC(N)=O)C(=O)NC2C(=O)NC3C(=O)NC(C(=O)NC(C(=O)O)c4cc(O)cc(O)c4-c4cc3ccc4O)C(OC3CC(C)(N)C(O)C(C)O3)c3ccc(c(Cl)c3)Oc3cc2cc(c3OC2OC(CO)C(O)C(O)C2OC2CC(C)(NCc3cccc4c([N+](=O)[O-])cccc34)C(O)C(C)O2)Oc2ccc(cc2Cl)C1O (centres unmarked) [Compound 25, 5-nitro-1-naphthylmethyl] |  | 0.5 (≈ 0.281 µM) |  | 0.5 (≈ 0.281 µM) | 0.25 (≈ 0.141 µM) |  | 0.125 (≈ 0.0703 µM) |  |  |  |  | 0.5 (≈ 0.281 µM) | 1 (≈ 0.563 µM) | 32 (≈ 18 µM) |  |  |  | 0.25 (≈ 0.141 µM) | 0.25 (≈ 0.141 µM) | ≤ 0.06 | MIC [19]: 32 µg/mL (≈ 18 µM); ED50 (Stapylococcus aureus): 0.16 mg/kg/2; ED50 (Streptococcus pyogenes): 0.087 mg/kg/2; ED50 (Streptococcus pneumoniae): 0.088 mg/kg/2; mean geometric MIC, Vancomycin Resistant Strains [20]: 4.0 µg/mL; mean geometric MIC, Vancomycin Sensitive Strains [21]: 0.22 µg/mL
3 | CNC(CC(C)C)C(=O)NC1C(=O)NC(CC(N)=O)C(=O)NC2C(=O)NC3C(=O)NC(C(=O)NC(C(=O)O)c4cc(O)cc(O)c4-c4cc3ccc4O)C(OC3CC(C)(N)C(O)C(C)O3)c3ccc(c(Cl)c3)Oc3cc2cc(c3OC2OC(CO)C(O)C(O)C2OC2CC(C)(NCc3cccc(Oc4cccc(C(F)(F)F)c4)c3)C(O)C(C)O2)Oc2ccc(cc2Cl)C1O (centres unmarked) [Compound 111] |  |  |  |  |  |  |  |  |  |  |  |  |  |  |  |  |  | ≤ 0.06 | 0.5 (≈ 0.271 µM) | 4 (≈ 2.17 µM) | mean geometric MIC, Vancomycin Resistant Strains [20]: 0.84 µg/mL; mean geometric MIC, Vancomycin Sensitive Strains [21]: 0.054 µg/mL
4 | CCCCCCCCCCCCOc1ccc(CNC2(C)CC(OC3C(Oc4c5cc6cc4Oc4ccc(cc4Cl)C(OC4CC(C)(N)C(O)C(C)O4)C4NC(=O)C(NC(=O)C6NC(=O)C(CC(N)=O)NC(=O)C(NC(=O)C(CC(C)C)NC)C(O)c6ccc(c(Cl)c6)O5)c5ccc(O)c(c5)-c5c(O)cc(O)cc5C(C(=O)O)NC4=O)OC(CO)C(O)C3O)OC(C)C2O)cc1 (centres unmarked) [Compound 10, 4-dodecyloxybenzyl] |  |  |  |  |  |  |  |  |  |  |  |  |  |  |  | 0.5 (≈ 0.268 µM) |  |  | 18 (≈ 9.64 µM) | 8 (≈ 4.29 µM) | 
5 | CNC(CC(C)C)C(=O)NC1C(=O)NC(CC(N)=O)C(=O)NC2C(=O)NC3C(=O)NC(C(=O)NC(C(=O)O)c4cc(O)cc(O)c4-c4cc3ccc4O)C(OC3CC(C)(N)C(O)C(C)O3)c3ccc(c(Cl)c3)Oc3cc2cc(c3OC2OC(CO)C(O)C(O)C2OC2CC(C)(NCC(C)=Cc3ccc(C(C)(C)C)cc3)C(O)C(C)O2)Oc2ccc(cc2Cl)C1O (centres unmarked) [Compound 42, 2,3-[2-methyl-3-[4-t-butylphenyl]]propenyl] | ≤ 0.06 | 0.25 (≈ 0.141 µM) | > 64 | 1 (≈ 0.562 µM) | 0.5 (≈ 0.281 µM) | 0.5 (≈ 0.281 µM) | 0.5 (≈ 0.281 µM) | ≤ 0.06 | 1 (≈ 0.562 µM) | 1 (≈ 0.562 µM) | 1 (≈ 0.562 µM) | 0.5 (≈ 0.281 µM) | 2 (≈ 1.12 µM) | 1 (≈ 0.562 µM) | ≤ 0.06 | ≤ 0.06 | 0.5 (≈ 0.281 µM) | 0.125 (≈ 0.0703 µM) | 8 (≈ 4.5 µM) | 1 (≈ 0.562 µM) | MIC [16]: 2 µg/mL (≈ 1.12 µM)
6 | CNC(CC(C)C)C(=O)NC1C(=O)NC(CC(N)=O)C(=O)NC2C(=O)NC3C(=O)NC(C(=O)NC(C(=O)O)c4cc(O)cc(O)c4-c4cc3ccc4O)C(OC3CC(C)(N)C(O)C(C)O3)c3ccc(c(Cl)c3)Oc3cc2cc(c3OC2OC(CO)C(O)C(O)C2OC2CC(C)(NCc3ccc(SC)cc3)C(O)C(C)O2)Oc2ccc(cc2Cl)C1O (centres unmarked) [Compound 41, 4-thiomethylbenzyl] | ≤ 0.06 | 0.25 (≈ 0.145 µM) | > 64 | 2 (≈ 1.16 µM) | 0.25 (≈ 0.145 µM) | ≤ 0.06 | 0.5 (≈ 0.289 µM) | ≤ 0.06 | ≤ 0.06 | ≤ 0.06 | 0.125 (≈ 0.0723 µM) | 0.25 (≈ 0.145 µM) | 2 (≈ 1.16 µM) | 4 (≈ 2.31 µM) | ≤ 0.06 | ≤ 0.06 | ≤ 0.06 | ≤ 0.06 | ≤ 0.06 | ≤ 0.06 | MIC [16]: 0.25 µg/mL (≈ 0.145 µM); MIC (Pedicoccus acidilacti): 71 µg/mL (≈ 41.1 µM); MIC (Pediococcus pentosaceus): 91 µg/mL (≈ 52.6 µM); MIC (Leuconostoc lactis): 91 µg/mL (≈ 52.6 µM); MIC [22]: 91 µg/mL (≈ 52.6 µM); MIC (Lactobacillus confusus): 64 µg/mL (≈ 37 µM)
